US20030033631A1, “Method for reducing pest damage to corn by treating transgenic corn seeds with thiamethoxam pesticide” (Monsanto Technology, L.L.C., priority 2000, published 2003)

Tested on: western and northern corn rootworm
Assay: Field trial of corn rootworm feeding damage to corn roots (Iowa 1-6 rating)
Assay type: in vivo
Details: Cry3Bb.11231 transgenic corn seeds treated with thiamethoxam (300 or 400 gm AI/100 kg seed) compared with transgenic seeds without pesticide treatment, Iowa 1-6 root rating
Text: Field trials for the determination of efficacy of transgenic event Cry3Bb.11231 in corn seed in combination with corn root worm pesticide seed treatments against western and northern corn rootworm.
Field trials can be run in accordance with pertinent protocols and in conformance with USDA notification requirements. The purpose of the trials is to determine the efficacy of transgenic event Cry3Bb.11231 in corn seed in combination with corn root worm seed treatments against western and northern corn root worm.
For each growing site that is selected, the plot design would included the following:
The following seed treatment combinations can be used for each growing area: […]
The determination of damage by corn rootworm can be made according to the following protocol. […] In that system, the root systems of 10 corn plants per plot are recovered and scored using the 1-6 rating scale, where: 1=no injury or only a few minor feeding scars, 2=feeding injury evident, but no roots eaten back to 1½ inches of the plant, 3=at least one root eaten off to within 1½ inches of the plant, but never an entire node of roots destroyed, 4=one node of roots eaten back to within 1½ inches of the plant, 5=two nodes (circles) of roots eaten back to within 1½ inches of the plant, 6=three nodes (circles) of roots eaten back to within 1½ inches of the plant.

CN1COCN(Cc2cnc(Cl)s2)/C1=N\[N+](=O)[O-] [thiamethoxam, 3-[(2-chloro-5-thiazolyl)mehthyl]tetrahydro-5-methyl-N-nitro-4H-1,3,5-oxadiazin-4-imine]
resistance to corn rootworm damage: more resistant to corn rootworm damage than the transgenic seeds without such pesticide treatment
